From the CheMixHub drug solubility set

Assay: xn = mol fraction of the nth substance listed, in the solute-free solvent

Cl.c1ccc2c(CC3=NCCN3)cccc2c1 + CO + CCOC(C)=O
solubility (g/100 g solution)
Settings | 278.15 K | 283.15 K | 288.15 K | 293.15 K | 298.15 K | 303.15 K | 308.15 K | 313.15 K | 318.15 K | 323.15 K
x2 = 0.234 | 0.0388 | 0.0424 | 0.0488 | 0.0564 | 0.0653 | 0.0746 | 0.0856 | 0.0943 | 0.107 | 0.124
x2 = 0.4074 | 0.414 | 0.448 | 0.483 | 0.536 | 0.585 | 0.641 | 0.701 | 0.757 | 0.832 | 0.9
x2 = 0.5409 | 1.28 | 1.46 | 1.64 | 1.85 | 2.05 | 2.3 | 2.54 | 2.8 | 3.09 | 3.43
x2 = 0.647 | 2.35 | 2.79 | 3.18 | 3.62 | 4.14 | 4.79 | 5.44 | 6 | 6.94 | 7.75
x2 = 0.7342 | 2.92 | 3.55 | 4.1 | 4.91 | 5.54 | 6.21 | 7.05 | 7.84 | 8.87 | 9.75
x2 = 0.8048 | 4.02 | 4.75 | 5.56 | 6.6 | 7.64 | 8.62 | 10.1 | 11.2 | 12.5 | 14
x2 = 0.8651 | 4.96 | 5.72 | 6.88 | 8.2 | 9.51 | 11.3 | 12.9 | 14.3 | 15.7 | 17.4
x2 = 0.9166 | 5.87 | 6.98 | 8.13 | 9.66 | 11.2 | 13.1 | 15 | 17.1 | 19 | 20.8
x2 = 0.9612 | 6.37 | 7.47 | 8.84 | 10.6 | 12.3 | 14.4 | 16.6 | 18.9 | 21.1 | 23.5

O=CC(O)C(O)C(O)CO (centres undefined) + CCO + ClCCl
solubility (g/100 g solution)
Settings | x2 = 0.1 | x2 = 0.2 | x2 = 0.3 | x2 = 0.4 | x2 = 0.5 | x2 = 0.6 | x2 = 0.7 | x2 = 0.8 | x2 = 0.9
283.15 K | 0.222 | 0.374 | 0.669 | 1.02 | 1.41 | 1.64 | 1.88 | 2.05 | 2.24
288.15 K | 0.227 | 0.458 | 0.813 | 1.26 | 1.81 | 2.12 | 2.32 | 2.57 | 2.85
293.15 K | 0.254 | 0.522 | 1.1 | 1.55 | 2.15 | 2.55 | 2.96 | 3.23 | 3.55
298.15 K | 0.264 | 0.645 | 1.28 | 1.9 | 2.77 | 3.18 | 3.69 | 4.2 | 4.58
303.15 K | 0.325 | 0.776 | 1.43 | 2.28 | 3.27 | 4.09 | 4.72 | 5.4 | 5.99

O=CC(O)C(O)C(O)CO (centres undefined) + CO + ClCCl
solubility (g/100 g solution)
Settings | x2 = 0.1 | x2 = 0.2 | x2 = 0.3 | x2 = 0.4 | x2 = 0.5 | x2 = 0.6 | x2 = 0.7 | x2 = 0.8 | x2 = 0.9
283.15 K | 0.097 | 0.564 | 1.19 | 1.64 | 2.52 | 3.8 | 4.89 | 6.81 | 9.89
288.15 K | 0.17 | 0.673 | 1.33 | 1.81 | 2.86 | 4.63 | 5.87 | 8.86 | 12.6
293.15 K | 0.204 | 0.696 | 1.5 | 2.4 | 3.52 | 5.59 | 7.17 | 10.8 | 15.8
298.15 K | 0.281 | 0.774 | 1.78 | 2.73 | 4.3 | 6.87 | 9.1 | 13.4 | 20.1
303.15 K | 0.286 | 0.82 | 2.17 | 3.22 | 5.29 | 9.18 | 12.7 | 18.3 | 25.3

O=C(O)c1ccc(-n2nc(-c3ccccc3O)nc2-c2ccccc2O)cc1 + CC(O)CO + CC#N
298.15 K
Settings | solubility (g/100 g solution)
x2 = 0.05655 | 2.43
x2 = 0.1188 | 4.43
x2 = 0.1878 | 6.62
x2 = 0.2645 | 8.48
x2 = 0.3504 | 9.81
x2 = 0.4473 | 10.7
x2 = 0.5573 | 11.3
x2 = 0.6833 | 11.4
x2 = 0.8292 | 11
